Results: patent publication US9521846B2, “Template-fixed peptidomimetics with antimicrobial activity” (priority 2006, dated 2016)
In brackets after ≈: the same amount, converted by molar mass. Non-standard residues stand in square brackets, D forms with d. Residues, ends and D or L forms follow the SMILES beside them. Dab = NCC[C@H](N)C(=O)O

What was measured:
P. aeruginosa ATCC 27853 = format: cell-based, Pseudomonas aeruginosa; conditions: ATCC 27853
Outline: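 Bacteria were diluted in MH broth containing 0.02% BSA to roughly 10^6 CFU/ml, checked against a 0.5 McFarland standard. This inoculum was then added in equal volume to serially two-fold diluted peptide, following the NCCLS microdilution protocol with slight modifications.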

in vivo = experiment: in vivo; parameters: species or system CD-1 mice
Experimental: Pharmacokinetic Study after Single Intravenous, Subcutaneous and Intraperitoneal Administration in Mice Pharmacokinetic study after single intravenous (i.v.) and subcutaneous (s.c.) administration was performed for the compound of Example 1 (“Ex. 1”). CD-1 mice (20-25 g) were used in the study. Physiological saline was used a vehicle. The volume was 2 ml/kg i.v., and 5 ml/kg s.c. and the peptide Ex. 1 was injected to give a final intravenous dose of 1 mg/kg, and a subcutaneous dose of 5 mg/kg. […] Plasma was removed from pelleted cells upon centrifugation and frozen at −80° C. prior to HPLC-MS analysis. “Blank” mouse plasma from untreated animals was used. Aliquots of plasma of 0.2 ml each were spiked with 50 ng of propranolol (Internal Standard, IS), (sample preparation by solid phase extraction on OASIS® BIB cartridges (Waters)) and with known amounts of Ex. 1 in order to obtain 9 plasma calibration samples in the range 10-5000 nM. […] The plate containing eluates was introduced into the concentrator system and taken to dryness. […] Samples coming from animal treatments were pooled in order to obtain an appropriate volume for the extraction. If the total volume obtained was less than 0.2 ml the appropriate amount of “blank” mouse plasma was added in order to keep the matrix identical to the calibration curve. Samples were than spiked with IS and processed as described for the calibration curve. PK analysis was performed on pooled data (generally n=2 or 3) using the software Win Nonlin (Pharsight). The area under the curve AUC was calculated by the linear trapezoidal rule. Elimination half-life was calculated by the linear regression on at least three data points during the elimination phase. The time intervals selected for the half-life determinations were evaluated by the correlation coefficient (r^2), which should be at least above 0.85 and most optimally above 0.96. In case of i.v. administration the initial concentration at tzero was determined by extrapolation of the curve through the first two time points. Finally bioavailability after […]. administration was calculated from the normalised AUCinf_D_obs ration after s.c. versus i.v. administration.

HELA cells (Acc57) = experiment: Cytotoxicity assay, MTT reduction (LC 50, GI 50); format: cell-based
Outline: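 Read-out was MTT reduction (A595) after 48 h peptide exposure (12.5–50 μM, triplicates) of HeLa cells plated at 7.0×10^3/well and precultured 24 h. Growth % was normalised to a time-zero reading. Linear trend interpolation gave the concentration at −50% growth (LC50) and at 50% growth (GI50).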

[1] = system: human red blood cells (hRBC); experiment: Hemolysis; format: cell-based; conditions: 100

## CC[C@H](C)[C@@H]1NC(=O)[C@H](Cc2c[nH]c3ccccc23)NC(=O)[C@H]([C@@H](C)O)NC(=O)[C@@H]2CCCN2C(=O)[C@H]2CCCN2C(=O)[C@H](CCN)NC(=O)[C@H](C)NC(=O)[C@H](CCN)NC(=O)[C@H](CCN)NC(=O)[C@H](Cc2c[nH]c3ccccc23)NC(=O)[C@H](CCN)NC(=O)[C@H](CCN)NC(=O)[C@H](CCCCN)NC(=O)[C@H](CCN)NC1=O [Example 1] (cyclo(TWI[Dab]K[Dab][Dab]W[Dab][Dab]A[Dab][dP]P))
P. aeruginosa ATCC 27853
  MIC P. aeruginosa ATCC 27853: 0.03 mg/L (≈ 0.019 µM)
In vivo; CD-1, mouse, iv, 1 mg/kg
  Vd: 1.14 L/kg
  clearance: 1.54 L/h/kg
  level at 0.25 h: 0.575 µg/mL
  level at 1 h: 0.177 µg/mL
  level at 3 h: 0.0106 µg/mL
In vivo; CD-1, mouse, sc, 5 mg/kg
  level at 8 h: 0.0073 µg/mL
In vivo; mouse, 5 mg/kg
  bioavailability: 118.2%
In vivo; mouse, 5 mg/kg, Bioavailability
  bioavailability: 118%
In vivo; mouse, iv, 1 mg/kg
  AUC(0-inf): 0.679 µg·h/mL
  C0: 2.17 µg/mL
  Cmax_D: 1268.0 kg·ng/mL/mg
  Tmax: 4.8 min
  half-life: 31.8 min
In vivo; mouse, iv, 1 mg/kg, Bioavailability
  bioavailability: 100%
In vivo; mouse, iv, 1 mg/kg, Cmax
  Cmax: 1.27 µg/mL
In vivo; mouse, sc, 5 mg/kg
  AUC(0-inf): 4.02 µg·h/mL
  Cl_obs: 1.2498 L/h/kg
  Cmax: 2.3333 µg/mL
  Cmax_D: 466.7 kg·ng/mL/mg
  Tmax: 34.8 min
  Vz_obs: 1.7056 L/kg
  half-life: 57 min
In vivo; mouse, sc, 5 mg/kg, Cmax
  Cmax: 2.33 µg/mL
HELA cells (Acc57)
  Cytotoxicity GI50 Hela cells: 30 µM
[1]
  Hemolysis at 100 μg/ml: 0.5%
